Values after ≈ are worked out from the molar mass of the structure shown.
Tests used:
Staphylococcus sp. = test: In vitro antibacterial evaluation: minimum inhibitory concentration (MIC), broth dilution method; assay type: cell-based
Summary of the method: (§1)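 NCCLS M7-A2 broth dilution with Mueller-Hinton II, testing 64-0.06 μg/mL antibiotic against 5×10^5 CFU/mL inocula. Test strains include recent methicillin-, penicillin- or vancomycin-resistant clinical isolates. MIC is the lowest concentration preventing growth.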

Streptococcus sp. = test: as above; assay type: cell-based; settings: 18 hours at 35° C.
Summary of the method: as §1

Escherichia coli = test: as above; assay type: cell-based; settings: 18 hours at 35° C.
Summary of the method: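 Using Muller-Hinton II […] and an inoculum of 5×10^5 CFU/mL, antibiotic dilutions from 64 down to 0.06 μg/mL were tested following NCCLS M7-A2. The MIC is the lowest concentration inhibiting growth, including in methicillin-, penicillin- or vancomycin-resistant clinical isolates.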

Enterococcus sp. = test: as above; assay type: cell-based; settings: 18 hours at 35° C.
Summary of the method: as §1

[1] = Anatomic pathology (heart and kidney histopathology) in mice; assay type: in vivo, CD-1 mice; settings: 20 mg/kg intravenously daily for 9 days, microscopic histopathology on day 10
Summary of the method: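 Histopathology on H&E-stained, paraffin-embedded sections, subjectively scored (slight, mild, moderate, marked, severe) relative to untreated controls. Dosing: glycopeptide antibiotics 20 mg/kg intravenously once daily ×9 days in 20-day-old CD-1 mice, n=5 per group including vehicle.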

[2] = tested on: Staphylococcus aureus-SMITH (GC 4543); test: Acute lethal infection in mice (ED50); assay type: in vivo; settings: female CD-1 mice, intraperitoneal challenge, intravenous dose 30 min. after infection, 7 day survival ratios
Summary of the method: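 IP bacterial challenge, female CD-1 mice; inoculum lethal to untreated controls in 24-48 hr. IV dosing in saline or 5% dextrose 30 min post-infection, 5 mice/dose. ED50 from 7-day survival, 3 tests pooled.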

[3] = broth dilution, inoculum 5×10^5 CFU/mL

SMILES: CC(c1ccccc1)C1NC(=O)CNC(=O)C(CO)NC(=O)C(CC2CNC(=N)N2C2OC(CO)C(O)C(O)C2O)NC(=O)C(CC2CNC(=N)N2)NC(=O)C(Cc2ccc(OC3OC(CO)C(OC4OC5COC6(OC5C(O)C4O)C4CC5CC(C4)CC6C5)C(O)C3O)cc2)NC1=O (stereo not shown) [Example 219]
- MIC Staphylococcus aureus (ATCC 29213) (Staphylococcus sp.; strain ATCC 29213): 4 µg/mL (≈ 2.87 µM)
- MIC Staphylococcus aureus (GC 1131) (Staphylococcus sp.; strain GC 1131): 4 µg/mL (≈ 2.87 µM)
- MIC Staphylococcus aureus (GC 3051) (Staphylococcus sp.; strain GC 3051): 2 µg/mL (≈ 1.43 µM)
- MIC Staphylococcus aureus (GC 3053) (Staphylococcus sp.; strain GC 3053): 2 µg/mL (≈ 1.43 µM)
- MIC Staphylococcus aureus (GC 4541) (Staphylococcus sp.; strain GC 4541): 2 µg/mL (≈ 1.43 µM)
- MIC Staphylococcus aureus (GC 4542) (Staphylococcus sp.; strain GC 4542): 2 µg/mL (≈ 1.43 µM)
- MIC Staphylococcus aureus-SMITH (GC 4543) (Staphylococcus sp.; strain GC 4543): 2 µg/mL (≈ 1.43 µM)
- MIC Staphylococcus aureus (GC 4544) (Staphylococcus sp.; strain GC 4544): 8 µg/mL (≈ 5.73 µM)
- MIC Staphylococcus aureus (GC 4545) (Staphylococcus sp.; strain GC 4545): 2 µg/mL (≈ 1.43 µM)
- MIC Staphylococcus haemolyticus (GC 4546) (Staphylococcus sp.; strain GC 4546): 2 µg/mL (≈ 1.43 µM)
- MIC Coagulase Negative Staphylococcus (GC 4547) (Staphylococcus sp.; strain GC 4547): 2 µg/mL (≈ 1.43 µM)
- MIC Coagulase Negative Staphylococcus (GC 4548) (Staphylococcus sp.; strain GC 4548): 2 µg/mL (≈ 1.43 µM)
- MIC Coagulase Negative Staphylococcus (GC 4549) (Staphylococcus sp.; strain GC 4549): 2 µg/mL (≈ 1.43 µM)
- MIC Coagulase Negative Staphylococcus (GC 4551) (Staphylococcus sp.; strain GC 4551): 4 µg/mL (≈ 2.87 µM)
- MIC Coagulase Negative Staphylococcus (GC 6257) (Staphylococcus sp.; strain GC 6257): 1 µg/mL (≈ 0.717 µM)
- MIC Streptococcus agalactiae (GC 4564) (Streptococcus sp.; Streptococcus agalactiae (GC 4564)): 2 µg/mL (≈ 1.43 µM)
- MIC Streptococcus pneumoniae (ATCC 6301) (Streptococcus sp.; Streptococcus pneumoniae (ATCC 6301)): 0.5 µg/mL (≈ 0.358 µM)
- MIC Streptococcus pneumoniae (GC 1894) (Streptococcus sp.; Streptococcus pneumoniae (GC 1894)): 1 µg/mL (≈ 0.717 µM)
- MIC Streptococcus pneumoniae (GC 4565) (Streptococcus sp.; Streptococcus pneumoniae (GC 4565)): 2 µg/mL (≈ 1.43 µM)
- MIC Streptococcus pyogenes (GC 4563) (Streptococcus sp.; Streptococcus pyogenes (GC 4563)): 2 µg/mL (≈ 1.43 µM)
- MIC Streptococcus agalactiae (GC 4564) (Streptococcus sp.; [3]): 2 µg/mL (≈ 1.43 µM)
- MIC Streptococcus pneumoniae (ATCC 6301) (Streptococcus sp.; [3]): 0.5 µg/mL (≈ 0.358 µM)
- MIC Streptococcus pneumoniae (GC 1894) (Streptococcus sp.; [3]): 1 µg/mL (≈ 0.717 µM)
- MIC Streptococcus pneumoniae (GC 4565) (Streptococcus sp.; [3]): 2 µg/mL (≈ 1.43 µM)
- MIC Streptococcus pyogenes (GC 4563) (Streptococcus sp.; [3]): 2 µg/mL (≈ 1.43 µM)
- MIC Escherichia coli (ATCC 25922) (Escherichia coli; Escherichia coli (ATCC 25922)): 64 µg/mL (≈ 45.9 µM)
- MIC Escherichia coli (GC 4559) (Escherichia coli; Escherichia coli (GC 4559)): 64 µg/mL (≈ 45.9 µM)
- MIC Escherichia coli (GC 4560) (Escherichia coli; Escherichia coli (GC 4560)): 4 µg/mL (≈ 2.87 µM)
- MIC Enterococcus avium (GC 4558) (Enterococcus sp.; Enterococcus avium (GC 4558)): 4 µg/mL (≈ 2.87 µM)
- MIC Enterococcus faecalis (ATCC 29212) (Enterococcus sp.; Enterococcus faecalis (ATCC 29212)): 16 µg/mL (≈ 11.5 µM)
- MIC Enterococcus faecalis (GC 2242) (Enterococcus sp.; Enterococcus faecalis (GC 2242)): 8 µg/mL (≈ 5.73 µM)
- MIC Enterococcus faecalis (GC 2691) (Enterococcus sp.; Enterococcus faecalis (GC 2691)): 8 µg/mL (≈ 5.73 µM)
- MIC Enterococcus faecalis (GC 3059) (Enterococcus sp.; Enterococcus faecalis (GC 3059)): 16 µg/mL (≈ 11.5 µM)
- MIC Enterococcus faecalis (GC 4552) (Enterococcus sp.; Enterococcus faecalis (GC 4552)): 8 µg/mL (≈ 5.73 µM)
- MIC Enterococcus faecalis (GC 4553) (Enterococcus sp.; Enterococcus faecalis (GC 4553)): 8 µg/mL (≈ 5.73 µM)
- MIC Enterococcus faecalis (GC 4554) (Enterococcus sp.; Enterococcus faecalis (GC 4554)): 8 µg/mL (≈ 5.73 µM)
- MIC Enterococcus faecalis (GC 6189) (Enterococcus sp.; Enterococcus faecalis (GC 6189)): 8 µg/mL (≈ 5.73 µM)
- MIC Enterococcus faecium (GC 2243) (Enterococcus sp.; Enterococcus faecium (GC 2243)): 8 µg/mL (≈ 5.73 µM)
- MIC Enterococcus faecium (GC 4556) (Enterococcus sp.; Enterococcus faecium (GC 4556)): 8 µg/mL (≈ 5.73 µM)
- MIC Enterococcus faecium (GC 4557) (Enterococcus sp.; Enterococcus faecium (GC 4557)): 4 µg/mL (≈ 2.87 µM)
- MIC Enterococcus avium (GC 4558) (Enterococcus sp.; [3]): 4 µg/mL (≈ 2.87 µM)
- MIC Enterococcus faecalis (ATCC 29212) (Enterococcus sp.; [3]): 16 µg/mL (≈ 11.5 µM)
- MIC Enterococcus faecalis (GC 2242) (Enterococcus sp.; [3]): 8 µg/mL (≈ 5.73 µM)
- MIC Enterococcus faecalis (GC 2691) (Enterococcus sp.; [3]): 8 µg/mL (≈ 5.73 µM)
- MIC Enterococcus faecalis (GC 3059) (Enterococcus sp.; [3]): 16 µg/mL (≈ 11.5 µM)
- MIC Enterococcus faecalis (GC 4552) (Enterococcus sp.; [3]): 8 µg/mL (≈ 5.73 µM)
- MIC Enterococcus faecalis (GC 4553) (Enterococcus sp.; [3]): 8 µg/mL (≈ 5.73 µM)
- MIC Enterococcus faecalis (GC 4554) (Enterococcus sp.; [3]): 8 µg/mL (≈ 5.73 µM)
- MIC Enterococcus faecalis (GC 6189) (Enterococcus sp.; [3]): 8 µg/mL (≈ 5.73 µM)
- MIC Enterococcus faecium (GC 2243) (Enterococcus sp.; [3]): 8 µg/mL (≈ 5.73 µM)
- MIC Enterococcus faecium (GC 4556) (Enterococcus sp.; [3]): 8 µg/mL (≈ 5.73 µM)
- MIC Enterococcus faecium (GC 4557) (Enterococcus sp.; [3]): 4 µg/mL (≈ 2.87 µM)
- Anatomical Pathology (Day 10), Heart [1]: 0
- Anatomical Pathology (Day 10), Kidney [1]: +++
- median effective dose (ED50), Staphylococcus aureus-SMITH (GC 4543) [2]: 0.5 mg/kg

From patent publication US8247211B2, “Glycopeptide antibiotics” (American Cyanamid Company, priority 2001, dated 2012)
